Experimental data as given in patent US11897925B2, “Treatment of homologous recombination deficient cancers” (Sinai Health System, priority 2020, dated 2024).

Assays:
DLD1 BRCA2−/− cells = assay: Micronuclei (MNi) assay after B6L induction; format: cell-based, human; settings: BRCA2−/− cells held in G2 with RO-3306 prior to release in mitosis
Experimental: For TOPBP1 rescue experiments, DLD1 wild-type and BRCA2^−/− cells stably expressing 2×HA-TOPBP1 were generated by viral transduction and selection with blasticidin (7.5 μg/mL for parental cells, 10 μg/mL for BRCA2^−/− cells). 3 days after transduction with sgRNA viral particles (as described in the clonogenic survival assays), cells were seeded in a 96-well plate (1,500 for wild-type cells; 4,000 for BRCA2^−/− cells) and cultured for 4 additional days. For inducible B6L expression experiments, DLD1 and MDA-MB-436 cells were seeded in a 96-well plate (1,500 for DLD1 wild-type cells; 4,000 for DLD1 BRCA2^−/− cells; 14,000 for MDA-MB-436) and cultured for up to 4 days in the presence of Aqua-Shield-1.
For detection of micronuclei, cells were fixed with 2% PFA, washed 3 times with PBS, permeabilized with 0.3% Triton X-100 in PBS for 5 min, washed 3 times with PBS, incubated for 1 h with PBS+DAPI (0.5 μg/mL). Alternatively, cells were stained for immunofluorescence (CENPA detection). After the last wash with PBS, images were acquired on an IN Cell Analyzer 6000 automated microscope (GE Life Sciences) with a 40× objective. Micronuclei were automatically detected and counted using the Columbus analysis tool (PerkinElmer).

U2OS cells = assay: CIP2A/TOPBP1 mitotic foci and filaments after aphidicolin; format: cell-based, human; settings: 400 nM aphidicolin, 16 h; wild type and MDC1−/− U2OS; mostly independent of MDC1
Experimental: For the experiments relating to the mitotic structures labelled by CIP2A and TOPBP1, U2OS wild-type and MDC1^-/- cell lines were seeded on coverslips and either treated with 400 nM aphidicolin for 16 h (overnight) or left untreated. In order to perform immunofluorescence, cells were quickly washed once with cold PBS and then fixed with ice-cold methanol for 10 min on ice. Methanol was discarded and cells were washed two times with PBS before incubation with blocking buffer (10% FBS in PBS) for at least 1 h. Incubation with primary antibodies diluted in 5% FBS-PBS was performed overnight at 4° C. in a humidity chamber. Coverslips were then washed 3×10 min with blocking buffer and incubated with AlexaFluor-conjugated secondary antibodies for 1 h at room temperature in the dark. After washing 3×10 min with PBS, coverslips were mounted on glass microscopy slides (Thermo Scientific, 630-1985, dimensions […]×[…] mm) with […] mounting medium containing 0.5 μg/mL (DAPI) (Vector Laboratories, H-1200). Confocal images were acquired using a Leica SP8 inverse confocal laser scanning microscope with a 63×, 1.4-NA Plan-Apochromat oil-immersion objective. […] Images were recorded using optimal pixel size based on Nyquist criterion. […] Quantification of the foci was performed manually based on maximum intensity projections. […]

Structure (SMILES)	B6L-induced micronucleation after holding cells in G2 (DLD1 BRCA2−/− cells)	frequency of CIP2A-TOPBP1 foci and filaments in mitotic cells (U2OS cells)
O=C1NC(=NCc2cccs2)S/C1=C\c1ccc2ncccc2c1 [RO-3306]	completely suppressed B6L-induced micronucleation	
C[C@@]1(CO)[C@H](O)CC[C@@]2(C)[C@H]1CC[C@H]1C[C@@H]3C[C@@]12CC[C@]3(O)CO [aphidicolin]		increased
